Source: patent US9249128B2 (priority 2010, dated 2016)

Tests used:
brain KIAA1363 = target: T1, brain KIAA1363 (Mus musculus, UniProt Q8BLF1); experiment: Competitive ABPP of brain proteomes from inhibitor-treated mice; type: in vivo
T1 construct: ABPP analysis of KIAA1363 activity in mouse brain membrane proteome; from tissue; host or cells: mouse brain (membrane fraction)
T1 sequence (Q8BLF1 1-408): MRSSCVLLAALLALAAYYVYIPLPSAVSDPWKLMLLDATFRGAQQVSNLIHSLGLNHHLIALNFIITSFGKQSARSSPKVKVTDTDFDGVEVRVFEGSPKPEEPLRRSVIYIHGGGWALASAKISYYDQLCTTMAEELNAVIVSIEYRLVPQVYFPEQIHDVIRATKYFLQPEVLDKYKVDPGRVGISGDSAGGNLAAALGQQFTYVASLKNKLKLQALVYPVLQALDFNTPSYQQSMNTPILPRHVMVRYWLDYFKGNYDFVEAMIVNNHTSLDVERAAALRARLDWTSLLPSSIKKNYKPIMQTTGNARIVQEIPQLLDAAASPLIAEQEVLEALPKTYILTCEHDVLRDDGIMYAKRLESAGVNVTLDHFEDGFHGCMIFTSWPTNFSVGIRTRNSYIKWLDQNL
Description: Tissues were Dounce-homogenized in PBS, pH 7.4, followed by a low-speed spin (1,400 g, 5 min) to remove debris. The supernatant was then subjected to centrifugation (100,000×g, 45 min) to provide the cytosolic fraction in the supernatant and the unsoluble fraction as a pellet. The pellet was washed and resuspended in PBS buffer by sonication. Total protein concentration in each fraction was determined using a protein assay kit (Bio-Rad). Samples were stored at −80° C. until use.
For ABPP experiments, cell lysate and tissue proteomes were treated with 1 μM FP-rhodamine for 30 min at room temperature (50 μL total reaction volume) as described previously (Nomura et al., 2010). Reactions were quenched with one volume of standard 4×SDS/PAGE loading buffer (reducing), separated by SDS/PAGE (10% acrylamide), and visualized in-gel with a Hitachi FMBio IIe flatbed fluorescence scanner (MiraiBio). Inhibitors were preincubated prior (30 min or 4 h at 37° C. in vitro or in situ, respectively) to the addition of FP-rhodamine.
JW480 was administered by oral gavage (in PEG300, 4 μL/g mouse) or intraperitoneally (in 18:1:1 v/v/v solution of saline:ethanol:emulphor, 10 μL/g). After the indicated amount of time, mice were anesthetized with isoflurane and killed by decapitation. Tissues were removed and then flash frozen in liquid N2. Tissues were stored at −80° C. until use. Animal experiments were conducted in accordance with the guidelines of the institutional Animal Care and Use Committee of The Scripps Research Institute.

[1] = test system: serine hydrolase activities detected in PC3 cells; experiment: Competitive ABPP-MudPIT of PC3 cells treated in situ; type: cell-based, human; settings: 1 uM in situ treatment, 4 hr; >30 serine hydrolase activities detected in PC3 cells
Description: Inhibitors were dissolved in DMSO and diluted into media or buffer prior to cell or proteome treatment, respectively. For in vitro treatment, final DMSO concentration was 4%. For in situ treatments of cells for ABPP, lipid measurements, migration, cell-survival, and invasion assays, 2×10^6 cells were seeded in 6 cm dishes (˜100% confluency) 24 h prior to inhibitor pre-treatment (in DMSO at 0.1% final concentration) in serum-free media (3 mL) for the designated time before harvesting cells for ABPP or lipid measurements or before the initiation of migration, cell-survival, and invasion assays.
Competitive ABPP-MudPIT experiments were performed as previously described (Nomura et al., 2010). Briefly, 1 mg of proteome was labeled with 5 μM FP-biotin, followed by solubilization with 1% Triton X-100, denaturation by SDS and heating, avidin precipitation of labeled proteins, and on-bead tryptic digest. Tryptic peptides were then loaded on to a biphasic (strong cation exchange/reverse phase) capillary column and analyzed by two-dimensional liquid chromatography (2D-LC) separation in combination with tandem mass spectrometry using an Agilent 1100 LC system coupled with a ThermoFisher LTQ linear ion trap mass spectrometer. Spectral counts are reported as the average of three samples with the standard error of the mean (SEM).

AChE = target: T2, AChE (Mus musculus, UniProt P21836); experiment: AChE activity assay with acetylthiocholine in mouse brain proteome; type: biochemical; settings: for Cross-reactivity with AChE: acetylthiocholine hydrolysis in mouse brain membrane proteome; for IC50: mouse brain proteome, substrate acetylthiocholine, n=3, read-out: IC50 for AChE (FIG. 2D)
T2 construct: 20 μg of cell lysate or mouse brain membrane proteome; from tissue; host or cells: mouse brain (membrane proteome)
T2 sequence (P21836 32-614): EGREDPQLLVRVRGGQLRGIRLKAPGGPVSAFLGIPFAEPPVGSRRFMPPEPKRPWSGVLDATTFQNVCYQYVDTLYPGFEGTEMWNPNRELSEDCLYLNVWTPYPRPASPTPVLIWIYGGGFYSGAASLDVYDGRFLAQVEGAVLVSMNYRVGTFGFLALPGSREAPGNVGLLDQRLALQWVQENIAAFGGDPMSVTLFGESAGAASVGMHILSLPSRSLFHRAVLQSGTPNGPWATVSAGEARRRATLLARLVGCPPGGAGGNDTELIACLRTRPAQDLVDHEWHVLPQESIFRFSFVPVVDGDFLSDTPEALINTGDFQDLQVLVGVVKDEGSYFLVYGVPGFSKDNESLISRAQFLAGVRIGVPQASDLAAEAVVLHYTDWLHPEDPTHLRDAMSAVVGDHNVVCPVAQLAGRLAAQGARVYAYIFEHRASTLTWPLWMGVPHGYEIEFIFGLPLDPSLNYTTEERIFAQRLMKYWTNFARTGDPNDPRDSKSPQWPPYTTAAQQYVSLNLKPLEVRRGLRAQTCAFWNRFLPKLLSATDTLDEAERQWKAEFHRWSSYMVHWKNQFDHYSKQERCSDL
Description: AChE activity was measured using a method similar to that described previously (Ellman et al., 1961). Briefly, 50 μL of 10 mM acetylthiocholine was added to 200 μL of PBS containing 2 mM DTNB and 20 μg of cell lysate or mouse brain membrane proteome. Absorbance was measured at 412 nm over 5 min, and the rate of product accumulation was calculated from the slope of the absorbance over time. For assays involving preincubation with inhibitors, the reactions were prepared without acetylthiocholine and JW480 was incubated at the indicated concentration for 30 min at 37° C. Acetylthiocholine was then added and the assay was carried out exactly as described above.

CC(C)c1ccccc1OC(=O)NCCc1ccc2ccccc2c1 [JW480, 2-isopropylphenyl (2-(naphthalen-2-yl)ethyl)carbamate]
Selectivity for KIAA1363 in brain proteomes from treated mice (gel-based ABPP) (brain KIAA1363; 1-80 mg/kg, i.p. or oral, 4 hr): excellent selectivity | Dose required to completely inactivate brain KIAA1363 in SCID mice (brain KIAA1363; immunedeficient SCID mouse strain, oral): 80 mg/kg | Dose giving complete inhibition of brain KIAA1363, i.p. (brain KIAA1363; mice, i.p., 4 hr): 5 mg/kg | Dose giving complete inhibition of brain KIAA1363, oral (brain KIAA1363; normal mice, oral, 4 hr): 20 mg/kg | Duration of KIAA1363 inhibition in vivo (brain KIAA1363; single administration 20 mg/kg, oral): up to 24 hr | Off-target activity across serine hydrolases (ABPP-MudPIT) [1]: no off-target activity | Cross-reactivity with AChE (AChE): negligible cross-reactivity | IC50 (AChE): > 100000 nM

COc1ccc(CNC(=O)Oc2cccc3c2OC(C)(C)C3)cc1 [JW148, 2,2-dimethyl-2,3-dihydrobenzofuran-7-yl 4-methoxybenzylcarbamate]
Cross-reactivity with AChE (AChE): cross-reactivity | IC50 (AChE): 1000 nM
